Assay results taken from patent US20250084069A1, “GERALEXIN AND USES THEREOF FOR THE TREATMENT OF RETINAL DEGENERATIVE DISEASES” (INSTITUT NATIONAL DE LA SANTÉ ET DE LA RECHERCHE MÉDICALE, priority 2022, published 2025).

Experiments:
[1] = system: cones of rd1 retinal explants; experiment: Cone protection on cultured retinal explants of the rd1 mouse; assay type: cell-based
[2] = system: phosphofructokinase (PFK); experiment: Metabolomic analysis of cone-enriched cultures (MetaToul platform); assay type: cell-based, chicken; settings: by metabolomic analysis
Description: (§1) G6P: glucose-6-phosphate, F6P; fructose-6-phosphate, F16BP: fructose-1,6-biphosphate, G3P: glycerol-3-phosphate, 2/3PG: 2- and 3-phosphoglycerate and PEP: phosphoenol pyruvate,
(§2) The therapeutic molecule, the acetogenin Geralexin (C37H66O7) (FIG. 1G) was purified to homogeneity from 100 kg of leaves of Uvaria chamae, a medicinal plant. […] We have fractionated Uvaria chamae extract by 7 steps of chromatography and characterized the molecule that we called Geralexin (FIG. 1E). […] Uc acts as RdCVF by stimulating aerobic glycolysis. […] The hydrophobicity of acetogenins allows their penetration into cones where Geralexin could bind and activate aerobic glycolysis (FIG. 2F-H). We search for genes encoding glycolytic enzymes with an expression profile indicating possible function in photoreceptors in our own web database KBaSS. […] PFKFB2 is a bifunctional protein with a N-terminal kinase domain that converts fructose 6 phosphate (F6P) into fructose 2,6 biphosphate (F26BP), an allosteric activator of phosphofructokinase (PFK), which catalyzes the rate-limiting step of glycolysis. […] We have analyzed the metabolome of the cone-enriched cultures exposed to Uc with the platform MetaToul (Toulouse). […] Our hypothesis is that Geralexin could be a treatment, alone or in addition to other interventions for dry AMD by preventing cone outer segment shortening and maintaining central vision.

glucose uptake by cones = experiment: Uptake of NBDG (fluorescent deoxyglucose derivative) in cone-enriched cultured cells; assay type: cell-based, chicken
Method: FIG. 2: Geralexin protects cones by stimulating aerobic glycolysis. A. Analysis of the effect of cone cell morphology in cone-enriched cultures by Geralexin (UcaC3F8f3). Cells are labeled with calcein AM. […] C. […] G. Comparative analysis of the protection of Geralexin (Uc: G3) on cone-enriched cultures in 15 versus 30 mM glucose. H. Ratio Geralexin+/no Geralexin.
The therapeutic molecule, the acetogenin Geralexin (C37H66O7) (FIG. 1G) was purified to homogeneity from 100 kg of leaves of Uvaria chamae, a medicinal plant. […] We have fractionated Uvaria chamae extract by 7 steps of chromatography and characterized the molecule that we called Geralexin (FIG. 1E). […] Uc acts as RdCVF by stimulating aerobic glycolysis. […] The hydrophobicity of acetogenins allows their penetration into cones where Geralexin could bind and activate aerobic glycolysis (FIG. 2F-H). We search for genes encoding glycolytic enzymes with an expression profile indicating possible function in photoreceptors in our own web database KBaSS. […] PFKFB2 is a bifunctional protein with a N-terminal kinase domain that converts fructose 6 phosphate (F6P) into fructose 2,6 biphosphate (F26BP), an allosteric activator of phosphofructokinase (PFK), which catalyzes the rate-limiting step of glycolysis. […] We have analyzed the metabolome of the cone-enriched cultures exposed to Uc with the platform MetaToul (Toulouse). […]

[3] = system: cones of cone-enriched cultures from chicken embryo; experiment: Cone survival in cone-enriched cultures from chicken embryo (live/dead assay); assay type: cell-based
Description: FIG. 1: Identification of an extract from Uvaria chamae protecting cones by high content screening of 800 extracts from 200 medicinal plants using cone-enriched cultures from chicken embryo. A. The set represents a total of 12,800 tests. a: methanol polyamide, b: ethyl acetate, c: depleted ethyl acetate, d: depleted methanol. The figure gives an overview of the screening. […] C. Chromatogram of the fractionation by HPLC of Uvaria chamae the fraction Ucac3. The eight fractions (Ucac3F 1-8) are indicated by grey/white shading. D. Test of the protective activity on cones of the Ucac3 fractions 1-8. E. Purification scheme. F. Chromatographic profile of purified Geralexin. G. Structure of Geralexin (C37H66O7).
as §2

PFKFB2 mRNA = PFKFB2 mRNA expression by cones of cone-enriched culture, quantitative RT-PCR; assay type: cell-based, chicken
Description: as §1, §2

CCCCCCCCCC1OC1C1CCC(/C=C\C=C\CCC(O)C(O)CCC(O)CCCCCCCCCCC(=O)O)O1 (stereo not shown) [Geralexin]
protection of cones / cone survival [1]: Protection of cones | phosphofructokinase (PFK) activity [2]: Increase phosphofructokinase (PFK) activity | glucose (NBDG) uptake by cones (glucose uptake by cones): Increase of the uptake of NBDG | protective effect on cones after silencing BSG1 ([3]; cone-enriched culture after electroporation of a micro RNA targeting BSG1): Absence of reduction of the protective effect | cone survival / protection of cones ([3]; cone-enriched cultures from chicken embryo): stimulates aerobic glycolysis and cone survival | effect of oxamate on the cone survival effect ([3]; cone-enriched cultures, with lactate dehydrogenase inhibitor oxamate): Reduction of the protection of cone | expression of PFKFB2 mRNA (PFKFB2 mRNA): Increase expression of PFKFB2 mRNA
